Consider three compounds from patent US20090192192A1, “INHIBITORS OF BIOFILM FORMATION OF GRAM-POSITIVE AND GRAM-NEGATIVE BACTERIA” (priority 2007, published 2009).

What all share (type): cell-based
In assay [1] the test system is Pseudomonas aeruginosa PAO1. The assay can be described thus: MBEC assay, biofilm formation of P. aeruginosa PAO1. The conditions noted are these: for IC50: biofilm formation, read-out: P. aeruginosa PAO1 inhibitory concentration IC50. In outline: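 Peg-lid biofilms were grown 24 h at 35±2 °C, 110 rpm, from inoculum diluted to ~6.0×10^5 cells per mL in TSB, with compound at 10 μM or 100 μM final (1% DMSO) in 1% Tween 80/CAMHB. Pegs were rinsed, then sonicated 30 min into recovery medium; survivors were spot-plated, and recovery plates were read visually after 24 h; triplicates.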

For assay [2], the system named is Staphylococcus aureus 398 (MRSA). The assay can be described thus: MBEC assay, biofilm formation of S. aureus 398 (MRSA). As to the method:
(§1) The compound to be tested was dissolved in DMSO to obtain a concentration that was 100 times that of the final concentration required (1 mM for the 10 μM assay and 10 mM for the 100 μM assay). 1.5 μL of the above solution was placed into each well of a 96 well plate (final volume in each well=150 μL, final DMSO concentration of 1% (v/v)).
To grow the organism and form a biofilm, a cryogenic stock of the test organism (at −70° C.) was used. A first sub-culture was streaked out onto TSA (tryptic soy agar), upon which the plate was incubated at 35±2° C. for 24 hours and stored wrapped in parafilm at 4° C. afterwards. From this first sub-culture, a second sub-culture was streaked out onto TSA. The plate was incubated at 35±2° C. for 24 hours. The second sub-culture was used within 24 hours starting from the time it was first removed from incubation. Using the second sub-culture an inoculum in 3 mL sterile water that matches a 0.5 McFarland Standard (1.5×10^8 cells per mL) was created in a glass test tube using a sterile cotton swab. […]
Rinse plate(s) of 0.9% saline (200 μL per well) were prepared in a sterile 96 well microtitre plate. […] The recovery plate was covered with a regular lid and incubated at 35±2° C. for 24 hours and read visually to confirm antimicrobial activity of the test compounds. […]

For assay [3], the system named is Staphylococcus epidermidis RP62A. The assay can be described thus: MBEC assay, biofilm formation of S. epidermidis RP62A. The conditions noted are these: read-out: S. epidermidis RP62A log R (log reduction); for log reduction at 10 µM: compound concentration 10 μM; for log reduction at 100 µM: compound concentration 100 μM. As to the method: as §1
(§2) To grow the organism and form a biofilm, a cryogenic stock of the test organism (at −70° C.) was used. A first sub-culture was streaked out onto TSA (tryptic soy agar), upon which the plate was incubated at 35±2° C. for 24 hours and stored wrapped in parafilm at 4° C. afterwards. From this first sub-culture, a second sub-culture was streaked out onto TSA. The plate was incubated at 35±2° C. for 24 hours. The second sub-culture was used within 24 hours starting from the time it was first removed from incubation. Using the second sub-culture an inoculum in 3 mL sterile water that matches a 0.5 McFarland Standard (1.5×10^8 cells per mL) was created in a glass test tube using a sterile cotton swab. 2.2 mL of this solution was diluted in 22 mL 100% TSB (tryptic soy broth) medium to a cell density of approximately […]. The diluted organism was inverted 3-5 times to achieve uniform mixing of the organism. One sample (100 μl) of the diluted organism was used for an inoculum check by serially diluting and spot plating on TSA.
(§3) To prepare a challenge plate, […] of the diluted organism was added to each well of a 96 well plate except the sterility control wells. The test compounds were added to the wells to make up final concentrations of 10 μM and […] (1.5 μL/well) in the designated location in the test plate. 128.5 μL of 100% universal neutralizer (1% Tween 80 in Cation Adjusted Mueller Hinton Broth, CAMHB) was placed in each of the wells. 130 μL of media was added to the growth control wells. 128.5 μL of media+1.5 μL of DMSO were added to a second set of growth control wells. 150 μL of media was added to the sterility controls. Each sample was run in triplicate. The plate was covered by a lid with a peg per well and wrapped in parafilm and placed on a shaker in a humidified incubator (GeneVac) at 35±+2° C. for 24 hours set at 110 rpm.
(§4) Rinse plate(s) of 0.9% saline (200 μL per well) were prepared in a sterile 96 well microtitre plate. Lid-associated pegs were rinsed in 0.9% saline for approximately 1-2 minutes. The peg lid was transferred to the recovery media (1.0% Tween 80 in CAMHB) then sonicated for 30 minutes to dislodge surviving biofilm. Following sonication, 100 μL from each well of the 96 well plate was placed into the first 12 wells of the first row of a 96 well microtiter plate. 180 μl of 0.9% sterile saline was placed in the remaining rows. A serial dilution (10^0-10^7) was prepared by moving 20 μl down each of the 8 rows. 20 μl from each well was removed and spot plated on a prepared TSA. In the remaining recovery plate, 100 μl of fresh growth media (1.0% Tween 80 in CAMHB) was placed in each well to replace the amount removed. The recovery plate was covered with a regular lid and incubated at 35±2° C. for 24 hours and read visually to confirm antimicrobial activity of the test compounds.
(§5) The compounds of the present disclosure have been tested regarding their efficiency to inhibit biofilm formation of Staphylococcus aureus U of C#18 (MRSA), Staphylococcus aureus 456 (MRSA), Staphylococcus epidermidis RP62A, and Pseudomonas aeruginosa PAO1.

In assay [4] the test system is Staphylococcus aureus U of C#18 (MRSA). The assay can be described thus: MBEC assay, biofilm formation of S. aureus U of C #18 (MRSA). The conditions noted are these: read-out: S. aureus U of C #18 (MRSA) log R (log reduction); for log reduction at 10 µM: compound concentration 10 μM; for log reduction at 100 µM: compound concentration 100 μM. As to the method: as §1, §2, §3, §4, §5

For assay [5], the system named is Staphylococcus aureus 456 (MRSA). The assay can be described thus: MBEC assay, biofilm formation of S. aureus 456 (MRSA). Particulars: read-out: S. aureus 456 (MRSA) log R (log reduction); for log reduction at 10 µM: compound concentration 10 μM; for log reduction at 100 µM: compound concentration 100 μM. The procedure: as §1, §2, §3, §4, §5

By inhibition is commonly meant the relative decrease from the control value, in per cent. In assay [1] (compound concentration 100 μM), `CCCCCCCCCCNC(=O)N1CCCC(C(=O)N(CC)CC)C1` (stereo not drawn) [Example 10, N^1-decyl-N^3,N^3-diethylpiperidine-1,3-dicarboxamide] yielded an inhibition at 100 µM of 84%. Besides, the “S. aureus 398 (MRSA) log R (log reduction)” value in assay [2] (compound concentration 10 μM) amounted to 1.38; in assay [2] (compound concentration 100 μM), 2.54. The log reduction at 10 µM amounted to 1.33 in assay [3] and 1.17 in assay [4]. The log reduction at 100 µM turned out to be 1.28 in assay [3] and 0.91 in assay [4].
As to `CCCCCCCCCCCC(=O)N1CCCC(C(=O)N(CC)CC)C1` (stereo not drawn) [Example 2, 1-dodecanoyl-N,N-diethylpiperidine-3-carboxamide], in assay [1], the IC50 worked out at 12 µM. Further, the results for the log reduction at 10 µM in assay [3], in assay [5] and in assay [4] were 0, 1.75 and 1.56, respectively. The results for the log reduction at 100 µM in assay [3], in assay [5] and in assay [4] were 3.5, 5.79 and 5.38, respectively.
Consider `CCCCCCCCCOCC(=O)Nc1ccnn1C` [Example 1, N-(1-methylpyrazol-5-yl)-2-(nonyloxy)acetamide], for which, in assay [1], the IC50 came out at 27 µM. For the same compound, the values for the log reduction at 10 µM in assay [3], in assay [5] and in assay [4] were 0, 0.26 and 0.4, respectively. For the same compound, the log reduction at 100 µM in assay [3] is 0; in assay [5], 1.18; in assay [4] it was 0.77.
